What was measured:
sciatic nerve = experiment: Sciatic nerve injury repair in rat sciatic nerve injury (clamp) model; type: in vivo, SD rats
Source text: The 8-week-old female SD rats were randomly divided into sham-operated and operated groups, with 3 rats in each group. SD rats were anesthetized by intraperitoneal injection of 10% chloral hydrate, and after successful anesthesia, the rats were fixed, and their right hind limbs were exposed by shaving with a shaver, and disinfected twice with 75% alcohol. A 3-4 cm incision was made with a scalpel at the posterior lateral femur of the right hind limb to expose the biceps femoris muscle, and the muscle was bluntly separated with surgical scissors to expose the thick sciatic nerve. The sciatic nerve was clamped vertically with a microhemostatic forceps, buckled to the third buckle, maintained for 10 s, repeated 3 times at 5 s/interval, resulting in an injury area approximately 2 mm wide, and the sciatic nerve was put back in place and sutured layer by layer. Penicillin (40,000 units/100g) was injected intraperitoneally for three consecutive days to prevent wound infection. […]
A dark box runway of 70 cm in length, 10 cm in width and 10 cm in height was made. […] The footprint length (PL), toe width (TS) and middle toe width (IT) were then measured and brought into the Bain formula for calculation.Bain formula: SFI=109.5 (ETS−NTS)/NTS−38.3 (EPL−NPL)/NPL+13.3(EIT−NIT)/NIT−8.8. […]

myocardial tissue = experiment: Myocardial injury repair in rat model of isoproterenol (ISO) myocardial injury; type: in vivo
Method: The rats were randomly selected and assigned into injection and control groups, with three rats in each group. The myocardial injury model was constructed by injecting an overdose of ISO at a dose of 80 mg/kg. The rats were fixed with a fixator to expose the abdomen; the rats were disinfected by wiping with alcohol cotton balls, and the amount of ISO injected was matched to their body weight, and then the rats were injected intraperitoneally for 1 week.
The rat was fixed with a fixator to keep its tail naturally down; before injection, the rat's tail was soaked in warm water for 3-4 min until the tail vein was seen clearly; then the rat's tail was wiped with an alcohol cotton ball for disinfection; then, when injecting the protein, the needle was injected at a minimal angle to the tail vein to keep it horizontal; after pushing the drug into the blood vessel, the wound was pressed with an alcohol cotton ball, and then the needle was withdrawn.
In order to fully remove the paraffin from the top of the slices, Paraffin sections of myocardial tissues were completely immersed in xylene twice, each time for 15 min; then the paraffin sections of cardiac tissues were placed into 100% ethanol solution, 95% ethanol solution, 75% ethanol solution, 50% ethanol solution and 3dH2O in turn, with a soaking time of 10 min for each gradient. The paraffin sections were removed and hematoxylin was added dropwise at the myocardial tissue in the sections for nuclear staining with a staining time of 8 min. immediately after the staining was completed, the sections were rinsed with tap water for 5 min, then differentiation solution was added dropwise at the myocardial tissue in the sections with a differentiation time of 20 s, and finally the sections were rinsed with tap water for 5 min. the sections were removed and eosin staining solution was added dropwise at the tissue with a staining time of 1 min, and finally the sections were rinsed with tap water Rinse the slices for 5 min. soak the paraffin sections according to a gradient of 50%, 75%, 95% and 100% ethanol, each for 5 min; then soak them twice in xylene for 2 min/time. Paraffin sections were removed from xylene, keeping xylene still retained on the sections; neutral gum was quickly added dropwise, and coverslips were picked up with forceps, and the coverslips were put down slowly.
The sections were soaked in xylene twice for 15 min/time; soaked sequentially according to a gradient of anhydrous ethanol, 95%, 75% and 50% alcohol solutions, each gradient for 5 min; finally the sections were soaked in triple distilled water for 5 min. equal amounts of Weigert iron hematoxylin A solution and B solution were mixed, and the mixture was added dropwise to the tissues, stained The sections were removed, and differentiation solution was added dropwise to the myocardial tissue for 20 s, and rinsed with tap water for 5 min. bluing solution was added dropwise to the tissue of the sections, and returned to blue treatment for 5 min, and rinsed with tap water for 5 min. lixin red magenta staining solution was added dropwise to the tissue of the sections, and staining time was 1 min, and rinsed with tap water for 5 min. 20% of Add phosphomolybdic acid solution dropwise on the tissue, stain for 5 min, pour off the phosphomolybdic acid solution on the section. Aniline blue staining solution was added dropwise for 5 min to re-stain the sections, and the aniline blue solution on the sections was poured off. […]

IGF1-24: 97 amino acids: amino-terminal 70 identical to IGF1, carboxyl-terminal 24 identical to IGFEc24 peptide, joined by three Gly linkers (SEQ ID NO: 4)
expression of GAP-43 in the sciatic nerve (immunofluorescence) (sciatic nerve; after 14 days of IGF1-24 100 μg/kg intraperitoneally, significantly different from control and Injury groups, FIG. 15): remained at a high level | sciatic nerve index (SFI) (sciatic nerve; treated group after IGF1-24 treatment, footprint analysis, Bain formula, FIG. 17): close to that of the uninjured group | Masson staining: area of cardiac fibrosis (myocardial tissue; ISO+IGF1-24-treated group vs ISO-injured group, FIG. 12): significantly reduced | HE staining of cardiac tissue: repair effect (myocardial tissue; ISO+IGF1-24 group compared with ISO+PBS group, FIG. 10): the repair effect was obvious | rate of PH3 positive cells in myocardial tissue (myocardial tissue; after ISO injury and IGF1-24 treatment, injury without treatment 0.1%, FIG. 13A-B): 0.8% | rate of Edu positive cells in myocardial tissue (myocardial tissue; after ISO injury and IGF1-24 treatment, injury without treatment 0.5%, FIG. 13A-B): 1.4% | number of Ki67-positive cells (immunohistochemistry of heart tissue) (myocardial tissue; treatment group vs injury group, FIG. 13C): differed significantly
